# Tested on: human myeloma cell line MM.1S
# Experiment: SILAC acetylated-lysine peptide profiling, HDAC inhibitor vs DMSO (light/heavy ratio)
# Format: cell-based
# Description: An embodiment of the invention comprises utilizing the SILAC method in order to quantitate changes in protein expression between two or more populations of cells. The SILAC method is a technique based on mass spectrometry that detects differences in protein abundance among samples using non-radioactive isotopic labeling. The SILAC method is known in the art, and described in detail in Ong et al., “Stable Isotope Labeling by Amino Acids in Cell Culture, SILAC, as a Simple and Accurate Approach to Expression Proteomics”, Molecular & Cellular Proteomics, vol. 1, pp. 376-386 (2002), which is incorporated herein by reference in its entirety.
# Briefly, the SILAC method involves growing two populations of cells in cell culture. The first population of cells is grown in growth media containing normal amino acids (“normal media”). The second population of cells is grown in media lacking a standard essential amino acid (such as lysine), but is then supplemented with a non-radioactive, isotopically labeled form of that essential amino acid (such as lysine labeled with ^13C atoms, rather than normal ^12C atoms), which is called “heavy media”. When the two populations of cells are each growing in the medium, they incorporate the amino acids into all of their proteins. The growth of cells maintained in the heavy media is no different from that in normal media. All peptides containing the heavy amino acids are heavier than their normal counterparts. The cells from each of the two populations of cells are lysed. The lysates from each of the two cell populations are then combined. The combined cell lysates are then analyzed by mass spectrometry. Pairs of chemically identical peptides of different stable isotope composition can be differentiated in a mass spectrometer due to their difference in mass. The ratio of peak intensities in the mass spectrum for such peptide pairs reflects the abundance ratio for the two proteins.
# This example describes SILAC studies that were performed to compare the effects of three different HDAC inhibitors (Compound A, Compound B, and tubastatin A) to a control on a human multiple myeloma cell line. The HDAC inhibitors were also compared amongst themselves to determine differences in their effects.
# A human myeloma cell line MM.1S was grown using either ^12C (light) or ^13C (heavy) lysine containing culture medium. The “heavy” cells were treated with DMSO as the control, and the “light” cells were treated with a single HDAC inhibitor at 37° C. for 6 hours. The heavy and light cells were lysed, and the lysates were mixed in 1:1 ratio and digested with the protease trypsin. The acetylated lysine containing peptides (due to the action of the HDAC inhibitor) in the digested peptide pool were captured by a non-specific anti-acetylated lysine antibody cocktail (the antibodies identify both light and heavy acetylated peptides), and subjected to mass spectrometry analysis in order to identify thousands of individual peptides.
# Thousands of peptides were identified in pairs (^12C and ^13C) due to their known mass differences. The amino acid sequence and quantitative ratio (Light/Heavy) of a given peptide in two differentially treated cell lysates were then determined and annotated with their possible protein (gene) sources.
# As stated above, three HDAC inhibitors (Compound A, Compound B, and Tubastatin A) were used. Thus, the SILAC method was performed three times, with a different HDAC inhibitor compared to a control each time. Accordingly, there are three pairs of quantitative data in the table below, i.e., Compound A:DMSO, Compound B:DMSO, and Tubastatin A:DMSO. A cut-off of 1.30 fold of change (increase or decrease) was then used to determine “changed” or “+” in the table, and any peptides with a fold of change less than 1.3 fold were determined to be “unchanged” or “0” in the table. Those peptides that were not identified were marked as “NA” in the table. […]
structure (smiles),measurement,setting,value
"O=C(NO)c1cnc(NC2(c3cccc(F)c3)CCCCC2)nc1 [Compound B, 2-((1-(3-fluorophenyl)cyclohexyl)amino)-N-hydroxypyrimidine-5-carboxamide]",L/H ratio of acetylated peptide FEK(ac)[…] (SEQ ID NO: 32),"DDX17 [132], log 2 scale, drug vs DMSO",0.00
same,L/H ratio of acetylated peptide,"DK(ac)WLCPLSGK (SEQ ID NO: 452), Isoform 2 of Serrate RNA effector molecule homolog [712], SRRT",0.42 log 2
same,L/H ratio of acetylated peptide,"DK(ac)[…] (SEQ ID NO: 456), F-box-like/WD repeat-containing protein TBL1XR1 [102], TBL1XR1",0.86 log 2
same,L/H ratio of acetylated peptide ELNK(ac)ILEGR (SEQ ID NO: 2),"DLAT [466], log 2 scale, drug vs DMSO",0.47
same,"light to heavy ratio (L/H ratio) of acetylated peptide, log 2 scale","DLEK(ac)WQNNLLPSR (SEQ ID NO: 211), 40S ribosomal protein 515a [88], RPS15A",0.00
same,"light to heavy ratio (L/H ratio) of acetylated peptide, log 2 scale","DLMTDLK(ac)SEISGDLAR (SEQ ID NO: 129), Annexin A6 [418], ANXA6",0.00
same,light to heavy ratio (L/H ratio) of acetylated peptide TFEK(ac)SMMNLQTK (SEQ ID NO: 354),"DNA topoisomerase 1 [642], TOP1, drug:DMSO",0.46 log 2
same,L/H ratio of acetylated peptide VVK(ac)HPIFER (SEQ ID NO: 35),"DNAJB11 [247], log 2 scale, drug vs DMSO",0.00
same,L/H ratio of acetylated peptide,"DVFNK(ac)GYGFGMVK (SEQ ID NO: 467), Isoform 1 of Voltage-dependent anion-selective channel protein 3 [20], VDAC3",−0.73 log 2
same,"light to heavy ratio (L/H ratio) of acetylated peptide, log 2 scale","DVK(ac)FGADAR (SEQ ID NO: 173), 60 kDa heat shock protein mitochondrial [31], HSPD1",0.00
same,L/H ratio of acetylated peptide,"DVTK(ac)AMDEK (SEQ ID NO: 426), Isoform 2 of 6-phosphofructokinase muscle type [329], PFKM",0.53 log 2
same,L/H ratio of acetylated peptide SFDSEFK(ac)LACK (SEQ ID NO: 8),"DYNC1H1 [4283], log 2 scale, drug vs DMSO",0.51
same,light to heavy ratio (L/H ratio) of acetylated peptide DTYIENEK(ac)LISGK (SEQ ID NO: 352),"Dolichyl-diphosphooligosaccharide--protein glycosyltransferase subunit 1 precursor [626], RPN1, drug:DMSO",0.77 log 2
same,light to heavy ratio (L/H ratio) of acetylated peptide YNIEK(ac)DIAAHIK (SEQ ID NO: 553),"Dynein light chain 1 cytoplasmic [36], gene DYNLL1, inhibitor:DMSO",0.00 log 2
same,light to heavy ratio (L/H ratio) of acetylated peptide YNIEK(ac)DIAAYIK (SEQ ID NO: 331),"Dynein light chain 2 cytoplasmic [36], DYNLL2, drug:DMSO",−0.45 log 2
same,L/H ratio of acetylated peptide,"EFTK(ac)LEEVLTNK (SEQ ID NO: 400), Glutathione S-transferase omega-1 [152], GSTO1",−0.60 log 2
same,L/H ratio of acetylated peptide TSK(ac)NK(ac)SSLSR (SEQ ID NO: 14),"EP300 [1558:1560], log 2 scale, drug vs DMSO",0.43
same,L/H ratio of acetylated peptide,"ESESVDK(ac)VMDQK (SEQ ID NO: 404), Isoform 1 of Heterogeneous nuclear ribonucleoprotein D0 [153], HNRNPD",−0.53 log 2
same,"light to heavy ratio (L/H ratio) of acetylated peptide, log 2 scale","EVHK(ac)[…] (SEQ ID NO: 181), Isoform 1 of L-lactate dehydrogenase A chain [232], LDHA",0.00
same,"light to heavy ratio (L/H ratio) of acetylated peptide, log 2 scale","EVQTNDLK(ac)EVVNK (SEQ ID NO: 223), 40S ribosomal protein S3a [182], SNORD73A, RPS3A",0.00
same,light to heavy ratio (L/H ratio) of acetylated peptide YLAEK(ac)YEWDVAEAR (SEQ ID NO: 332),"Elongation factor 2 [638], EEF2, drug:DMSO",−0.40 log 2
same,light to heavy ratio (L/H ratio) of acetylated peptide TFK(ac)GVVDVVMK (SEQ ID NO: 550),"Elongation factor G 2 mitochondrial precursor [265], gene GFM2, inhibitor:DMSO",0.00 log 2
same,light to heavy ratio (L/H ratio) of acetylated peptide KSDYIK(ac)LYVR (SEQ ID NO: 315),"Endoplasmin [410], HSP90B1, drug:DMSO",0.00 log 2
same,light to heavy ratio (L/H ratio) of acetylated peptide EK(ac)[…] (SEQ ID NO: 314),"Endoplasmin[ 142], HSP90B1, drug:DMSO",0.00 log 2
same,light to heavy ratio (L/H ratio) of acetylated peptide EVEEDEYK(ac)AFYK (SEQ ID NO: 261),"Endoplasmin[ 356], HSP90B1, drug:DMSO",0.00 log 2
same,light to heavy ratio (L/H ratio) of acetylated peptide LMCK(ac)PIFSK (SEQ ID NO: 335),"Eukaryotic translation initiation factor 2 subunit 3 [312], EIF2S3, drug:DMSO",0.49 log 2
same,light to heavy ratio (L/H ratio) of acetylated peptide SHLAK(ac)EGLYQYK (SEQ ID NO: 533),"Eukaryotic translation initiation factor 3 subunit A [68], gene EIF3A, inhibitor:DMSO",0.00 log 2
same,L/H ratio of acetylated peptide,"FAFK(ac)EVEVQAK (SEQ ID NO: 397), Putative rRNA methyltransferase 3 [218], FTSJ3",0.74 log 2
same,L/H ratio of acetylated peptide,"FEDENFHYK(ac)HDR (SEQ ID NO: 431), Peptidyl-prolyl cis-trans isomerase D [111], PPID",0.46 log 2
same,L/H ratio of acetylated peptide,"FGIAAK(ac)YMLDCR (SEQ ID NO: 468), Isoform 1 of Voltage-dependent anion-selective channel protein 3 [224], VDAC3",0.43 log 2
same,L/H ratio of acetylated peptide,"FK(ac)ECLDK (SEQ ID NO: 420), Isoform 2 of N-alpha-acetyltransferase 15 NatA auxiliary subunit [307], NAA15",0.60 log 2
same,"light to heavy ratio (L/H ratio) of acetylated peptide, log 2 scale","FLEQQNK(ac)[…] (SEQ ID NO: 241), Vimentin [129], VIM",0.00

# Source: patent publication US20140357512A1, “HISTONE DEACETYLASE (HDAC) BIOMARKERS IN MULTIPLE MYELOMA” (priority 2013, published 2014)
